{
  "source": "patent US12391657B2",
  "about": "“Small molecules that bind and/or modulate differentforms of tau oligomers” (The Board of Regents of the University of Texas System, priority 2019, dated 2025)",
  "key": {"[1]": {"target": "T1, recombinant tau oligomers (TauO) (Homo sapiens, UniProt P10636)", "T1 construct": "made in house", "T1 sequence (P10636 1-441 isoform P10636-8)": "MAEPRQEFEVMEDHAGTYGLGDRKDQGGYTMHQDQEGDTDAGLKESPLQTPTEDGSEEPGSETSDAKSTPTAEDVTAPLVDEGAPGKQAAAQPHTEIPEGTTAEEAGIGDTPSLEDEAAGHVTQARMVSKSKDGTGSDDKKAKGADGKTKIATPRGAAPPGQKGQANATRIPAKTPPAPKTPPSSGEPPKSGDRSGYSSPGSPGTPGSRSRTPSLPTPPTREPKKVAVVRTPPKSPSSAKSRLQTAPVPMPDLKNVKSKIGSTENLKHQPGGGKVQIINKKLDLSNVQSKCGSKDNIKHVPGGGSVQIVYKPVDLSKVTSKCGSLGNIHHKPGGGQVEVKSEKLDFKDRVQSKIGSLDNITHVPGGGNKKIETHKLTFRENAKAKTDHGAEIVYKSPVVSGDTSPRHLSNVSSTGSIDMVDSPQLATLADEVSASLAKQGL", "assay": "Western blot of recombinant tau oligomers with and without compounds", "assay_type": "biochemical", "conditions": "curcumin 5× and 10×, oligomerization conditions", "method": "Pre-cast NuPAGE 4-12% Bis-Tris Gels for SDS-PAGE (Introvigen) were loaded with 3 μg of recombinant tau for each sample per well along with molecular weight marker. After being separated by electrophoresis, proteins were transferred to nitrocellulose membranes. Membranes were then blocked with 10% nonfat milk in Tris-buffered saline with very low tween 0.01% (TBS-T) overnight at 4° C. The next day membranes were probed with T22 (1:250) for tau oligomers and tau5 (1:10000) for total tau, diluted in 5% nonfat milk for 1 hour at RT. Membranes were then incubated with horseradish peroxidase-conjugated IgG anti-rabbit (1:10000) and anti-mouse (1:10000) secondary antibodies to detect, T22 and Tau5, respectively. ECL plus (GE Healthcare) was used for signal detection. Densitometric analysis of each band was quantified using Image J and analyzed by one-way ANOVA.\nRecombinant tau protein (tau-441 (2N4R) MW 45.9 kDa) was expressed and purified as described (Margittai and Langen 2004, Margittai and Langen 2006). The tau pellet was treated with 8M urea followed by overnight dialysis against 1× phosphate-buffered saline (PBS) pH 7.4. Tau concentration was measured using bicinchoninic acid protein assay (Micro BCA kit, Pierce) and normalized to 1 mg/ml by adding 1× PBS. Aliquots of tau monomer in PBS were stored at −20° C. […]"}, "[2]": {"target": "T1, recombinant tau oligomers (TauO)", "assay": "Direct ELISA of recombinant tau oligomers with and without compounds", "assay_type": "biochemical", "conditions": "increased concentration of curcumin", "method": "ELISA assay was conducted as previously described (Lasagna-Reeves, Castillo-Carranza et al. 2010). […] After washing three times with TBS-T, plates were blocked for 1 hour at 37° C. with 120 μl of 10% non-fat milk in TBS-T. Plates were then washed three times with TBS-T, before probing with 100 μL of primary antibodies for 1 hour at 37° C., T22 (diluted 1:250 in 5% non-fat milk in TBS-T) and Tau 5 (diluted 1:10000 in 5% non-fat milk in TBS-T), respectively . Plates were then washed three times with TBS-T, and probed with 100 μL of horseradish peroxidase-conjugated anti-rabbit or anti-mouse IgG (Promega, Madison, WI) (diluted 1:10000 in 5% non-fat milk in TBS-T). After 1 hour of incubation at 37° C., plates were washed three times with TBS-T and developed with 3, 3, 5, 5-tetramethylbenzidine (TMB-lcomponent substrate, KPL, Gaithersburg, MD). The reaction was stopped by using 100 μL 1M HCl and samples were read at 450 nm using POLARstar OMEGA plate reader. All measurements were performed in triplicate\nCompounds were dissolved in ETOH 75%/DMSO (5:1) at a final concentration of 5 mM and diluted in 1× PBS or ddH2O for incubation or toxicity assay (final concentration 5 μM). […]\nELISA assay was conducted as previously described (Lasagna-Reeves, Castillo-Carranza et al. 2010). […] The reaction was stopped using 100 μl of 1M HCl and absorbance was read at 450 nm using POLARstar OMEGA plate reader. […]"}, "[3]": {"tested_on": "SH-SY5Y human neuroblastoma cells", "assay": "MTT viability of SH-SY5Y cells exposed to TauO pre-incubated with compound", "assay_type": "cell-based", "conditions": "2 μM TauO; curcumin final concentration 10 μM", "method": "Human neuroblastoma SH-SY5Y cells were maintained in Dulbecco's modified Eagle's medium (DMEM) and grown to confluence in 96-well plates. […] Cells viability was corrected by the vehicle background. All measurements were performed in triplicate. The cytotoxic effect was determined using 3-(4,5-dimethylthiazol-2-yl)-2,5-diphenyltetrazolium bromide (MTT) assay for assessing cell viability following manufacturers' instructions. Optical density (OD) was measured at 490 nm with POLARstar OMEGA plate reader (BMG Labtechnologies). Cell viability was calculated as the percentage of the OD value of treated cells compared with untreated controls, according to the following equation: Viability=(OD SAMPLE/OD CONTROL)×100. […]\nHuman neuroblastoma SH-SY5Y cells were maintained in Dulbecco's modified Eagle's medium (DMEM) and grown to confluence in 96-well plates. […] The cytotoxic effect was determined using 3-(4,5-dimethylthiazol-2-yl)-2,5-diphenyltetrazolium bromide (MTT) assay for assessing cell viability following manufacturer's instructions. Optical density (OD) was measured at 490 nm with POLARstar OMEGA plate reader (BMG Labtechnologies). Cell viability was calculated as the percentage of the OD value of treated cells compared with untreated controls, according to the following equation: Viability=(OD SAMPLE/OD CONTROL)×100. […]"}, "[4]": {"conditions": "cited from earlier work"}},
  "note": "Entries after “also recorded” stand apart in the source; their conditions may differ.",
  "data": [
    {"smiles": "COc1cc(/C=C/C(=O)CC(=O)/C=C/c2ccc(O)c(OC)c2)ccc1O", "note": "[curcumin]", "values": [
      {"measurement": "aggregation state of preformed tau oligomers, Western blot (T22, Tau 5, Tau 13)", "setting": "[1]", "value": "promoting the formation of larger tau aggregates"},
      {"measurement": "aggregation state of preformed tau oligomers, Western blot (T22, Tau 5, Tau 13)", "setting": "[1]; listed as Curcumin", "value": "alters the aggregation states of preformed tau oligomers"},
      {"measurement": "tau oligomer level, T22 immunoreactivity, direct ELISA", "setting": "[2]", "value": "significant decrease in T22 immunoreactivity; also recorded: significant decrease in oligomers"},
      {"measurement": "viability of SH-SY5Y cells exposed to TauO pre-incubated with curcumin", "setting": "[3]", "value": "significantly higher cells viability when compared to TauO alone; also recorded: rescued cells from TauO-induced toxicity"},
      {"measurement": "solubility in aqueous media", "setting": "[4]", "value": "poor solubility in aqueous buffers"}
    ]}
  ]
}
